Measured values as given in ChEMBL document CHEMBL1201862, “PubChem BioAssay data set” (2004).
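All cell lines were grown in 96-well plates and treated with compound for 48 hours. At the GI50, growth is halved.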 The source made the active and inactive calls. Cut-off read from the data, not from the text of the source: active = GI50 up to about 1.1 µM and inactive = higher.

Tests used:
Assay in all cases: NCI anticancer screen, dose series, 48 h
A549 = system: A549
ACHN = system: ACHN
CAKI-1 = system: CAKI-1
COLO 205 = system: COLO 205
HCT-116 = system: HCT-116
HT-29 = system: HT-29
IGROV-1 = system: IGROV-1
KM12 = system: KM12
NCI-H23 = system: NCI-H23
OVCAR-5 = system: OVCAR-5
OVCAR-8 = system: OVCAR-8
SF-295 = system: SF-295
SK-MEL-28 = system: SK-MEL-28
SK-MEL-2 = system: SK-MEL-2
SNB-75 = system: SNB-75
TK-10 = system: TK-10
UO-31 = system: UO-31
RXF 393 = system: RXF 393

Compound	GI50 (A549)	GI50 (ACHN)	GI50 (CAKI-1)	GI50 (COLO 205)	GI50 (HCT-116)	GI50 (HT-29)	GI50 (IGROV-1)	GI50 (KM12)	GI50 (NCI-H23)	GI50 (OVCAR-5)	GI50 (OVCAR-8)	GI50 (SF-295)	GI50 (SK-MEL-28)	GI50 (SK-MEL-2)	GI50 (SNB-75)	GI50 (TK-10)	GI50 (UO-31)	GI50 (RXF 393)
CCOC(=O)C1=C(C)NC2=C(C(=O)N(c3ccccc3)C2c2ccccc2)C1c1ccccc1 (centres undefined)	17.8 µM (inactive)	14.1 µM (inactive)	16 µM (inactive)	18.7 µM (inactive)	16.9 µM (inactive)	19.9 µM (inactive)	15.4 µM (inactive)	17.1 µM (inactive)	17.2 µM (inactive)	16.3 µM (inactive)	20.1 µM (inactive)	> 10 µM (inactive)	17.7 µM (inactive)	17.4 µM (inactive)	12.3 µM (inactive)	18.9 µM (inactive)	19.8 µM (inactive)	–
O=C(NN1C(=O)C(Cl)C1c1ccccc1Cl)c1ccccc1O (centres undefined)	> 100 µM (inactive)	> 100 µM (inactive)	–	–	> 100 µM (inactive)	> 100 µM (inactive)	–	> 100 µM (inactive)	–	–	> 100 µM (inactive)	> 100 µM (inactive)	> 100 µM (inactive)	> 100 µM (inactive)	> 100 µM (inactive)	> 100 µM (inactive)	> 100 µM (inactive)	15.9 µM (inactive)
O=[N+]([O-])C1C2C=CC(C2)[C@H]1c1ccco1 (some centres undefined)	> 100 µM (inactive)	> 100 µM (inactive)	> 100 µM (inactive)	> 100 µM (inactive)	> 100 µM (inactive)	2.19 µM (inactive)	> 100 µM (inactive)	> 100 µM (inactive)	0.384 µM (active)	> 100 µM (inactive)	> 100 µM (inactive)	> 100 µM (inactive)	–	> 100 µM (inactive)	> 100 µM (inactive)	> 100 µM (inactive)	> 100 µM (inactive)	> 100 µM (inactive)
Cn1c(O)c(C(=O)Nc2cccs2)c(=O)[nH]c1=S	19.4 µM (inactive)	12.9 µM (inactive)	13 µM (inactive)	16.6 µM (inactive)	13.4 µM (inactive)	18.2 µM (inactive)	18.2 µM (inactive)	17.9 µM (inactive)	14.5 µM (inactive)	28.6 µM (inactive)	14 µM (inactive)	15.5 µM (inactive)	15.1 µM (inactive)	16.4 µM (inactive)	16.9 µM (inactive)	31 µM (inactive)	12.2 µM (inactive)	–
CC1OC(OCC2COC(O)(Oc3c(-c4ccc(O)c(O)c4)oc4cc(O)cc(O)c4c3=O)C(O)C2O)C(O)C(O)C1O (centres undefined)	> 100 µM (inactive)	> 100 µM (inactive)	> 100 µM (inactive)	> 100 µM (inactive)	> 100 µM (inactive)	> 100 µM (inactive)	> 100 µM (inactive)	> 100 µM (inactive)	> 100 µM (inactive)	> 100 µM (inactive)	> 100 µM (inactive)	> 100 µM (inactive)	> 100 µM (inactive)	–	> 100 µM (inactive)	> 100 µM (inactive)	> 100 µM (inactive)	> 100 µM (inactive)
Cc1cc(Br)ccc1/N=N/C1C(=O)ON=C1c1ccccc1 (centres undefined)	25.7 µM (inactive)	63.4 µM (inactive)	–	16 µM (inactive)	46.5 µM (inactive)	47.1 µM (inactive)	> 100 µM (inactive)	> 100 µM (inactive)	> 100 µM (inactive)	> 100 µM (inactive)	> 100 µM (inactive)	> 100 µM (inactive)	> 100 µM (inactive)	> 100 µM (inactive)	> 100 µM (inactive)	69.3 µM (inactive)	46.9 µM (inactive)	52.4 µM (inactive)
CS(=O)(=O)C1(Br)S(=O)(=O)OCCOS1(=O)=O	> 100 µM (inactive)	> 100 µM (inactive)	–	> 100 µM (inactive)	> 100 µM (inactive)	> 100 µM (inactive)	> 100 µM (inactive)	–	> 100 µM (inactive)	> 100 µM (inactive)	> 100 µM (inactive)	> 100 µM (inactive)	> 100 µM (inactive)	> 100 µM (inactive)	> 100 µM (inactive)	> 100 µM (inactive)	> 100 µM (inactive)	> 100 µM (inactive)
CSc1nc2nccnc2c(=O)[nH]1	> 100 µM (inactive)	> 100 µM (inactive)	> 100 µM (inactive)	> 100 µM (inactive)	> 100 µM (inactive)	> 100 µM (inactive)	> 100 µM (inactive)	–	> 100 µM (inactive)	> 100 µM (inactive)	> 100 µM (inactive)	> 100 µM (inactive)	> 100 µM (inactive)	> 100 µM (inactive)	> 100 µM (inactive)	> 100 µM (inactive)	> 100 µM (inactive)	> 100 µM (inactive)
COc1ccc(-c2oc(/C=N/c3ccccc3)c([N+](=O)[O-])c2-c2ccc(OC)c(OC)c2)cc1OC	> 100 µM (inactive)	> 100 µM (inactive)	> 100 µM (inactive)	> 100 µM (inactive)	> 100 µM (inactive)	> 100 µM (inactive)	> 100 µM (inactive)	> 100 µM (inactive)	> 100 µM (inactive)	> 100 µM (inactive)	> 100 µM (inactive)	> 100 µM (inactive)	> 100 µM (inactive)	–	> 100 µM (inactive)	> 100 µM (inactive)	> 100 µM (inactive)	> 100 µM (inactive)
COC(=O)C1Cc2c([nH]c3ccccc23)[C@H](CC(C)C)N1 (some centres undefined)	> 100 µM (inactive)	> 100 µM (inactive)	–	> 100 µM (inactive)	> 100 µM (inactive)	> 100 µM (inactive)	> 100 µM (inactive)	> 100 µM (inactive)	> 100 µM (inactive)	> 100 µM (inactive)	> 100 µM (inactive)	> 100 µM (inactive)	> 100 µM (inactive)	> 100 µM (inactive)	97.5 µM (inactive)	> 100 µM (inactive)	> 100 µM (inactive)	> 100 µM (inactive)
COC(=O)C(/C(=N/NC(N)=O)C(=O)Nc1c(C)cccc1C(C)(C)C)c1nc2ccc(Cl)cc2nc1O (centres undefined)	> 100 µM (inactive)	> 100 µM (inactive)	> 100 µM (inactive)	–	> 100 µM (inactive)	> 100 µM (inactive)	> 100 µM (inactive)	> 100 µM (inactive)	> 100 µM (inactive)	> 100 µM (inactive)	> 100 µM (inactive)	> 100 µM (inactive)	> 100 µM (inactive)	> 100 µM (inactive)	> 100 µM (inactive)	> 100 µM (inactive)	> 100 µM (inactive)	> 100 µM (inactive)
N#CC(C#N)=C(N)/C(C#N)=C\c1ccnc2ccccc12	> 100 µM (inactive)	40.6 µM (inactive)	23.6 µM (inactive)	> 100 µM (inactive)	0.962 µM (active)	24.8 µM (inactive)	22.1 µM (inactive)	25.7 µM (inactive)	19.9 µM (inactive)	> 100 µM (inactive)	17.3 µM (inactive)	28.2 µM (inactive)	20.2 µM (inactive)	–	31.4 µM (inactive)	35.2 µM (inactive)	18.2 µM (inactive)	18.6 µM (inactive)
CO/N=C(/C(=O)Nc1c[n+](CC(=O)[O-])cs1)c1csc(N)n1	> 100 µM (inactive)	> 100 µM (inactive)	> 100 µM (inactive)	> 100 µM (inactive)	> 100 µM (inactive)	> 100 µM (inactive)	> 100 µM (inactive)	> 100 µM (inactive)	> 100 µM (inactive)	> 100 µM (inactive)	> 100 µM (inactive)	> 100 µM (inactive)	–	> 100 µM (inactive)	–	> 100 µM (inactive)	> 100 µM (inactive)	–
CCCCc1c2c(nc3c1CCC/C3=C\c1ccccc1)C(=O)CCC2	25.6 µM (inactive)	25.7 µM (inactive)	–	22.8 µM (inactive)	20 µM (inactive)	15.5 µM (inactive)	18.6 µM (inactive)	18.7 µM (inactive)	24.2 µM (inactive)	19.5 µM (inactive)	24.5 µM (inactive)	21.2 µM (inactive)	19.8 µM (inactive)	17.1 µM (inactive)	29.1 µM (inactive)	24.5 µM (inactive)	24.5 µM (inactive)	17 µM (inactive)
C(=C\C(Sc1ccccc1)c1ccccc1)/NNC1=NN=C(c2ccccc2)C(c2ccccc2)N1 (centres undefined)	58.7 µM (inactive)	44.7 µM (inactive)	24.8 µM (inactive)	32.2 µM (inactive)	42.2 µM (inactive)	12 µM (inactive)	68.5 µM (inactive)	58.3 µM (inactive)	31.2 µM (inactive)	35.5 µM (inactive)	34.6 µM (inactive)	32.7 µM (inactive)	> 100 µM (inactive)	74 µM (inactive)	> 100 µM (inactive)	61.2 µM (inactive)	18.8 µM (inactive)	–
c1cncc(CSc2nc3ccccc3nc2-c2cccs2)c1	53.6 µM (inactive)	36.9 µM (inactive)	> 10 µM (inactive)	> 100 µM (inactive)	> 100 µM (inactive)	57.1 µM (inactive)	–	48.6 µM (inactive)	> 100 µM (inactive)	> 100 µM (inactive)	83.9 µM (inactive)	> 100 µM (inactive)	> 100 µM (inactive)	87.1 µM (inactive)	> 100 µM (inactive)	> 100 µM (inactive)	36.4 µM (inactive)	–
